From the OligoGym collection
After the bases stand the sugars from the 5' end (letter, count) and the backbone: PS all phosphorothioate, else s phosphorothioate and o phosphodiester by linkage. Methylation of C is not given here. e = 2'-O-(2-methoxyethyl) (MOE); k = constrained ethyl (cEt); d = 2'-deoxy (DNA); m = 2'-O-methyl

Target: HSD17B13
Settings: ASO, HepaRG

| Sequence | target mRNA inhibition (1 µM) [%] | other results |
| --- | --- | --- |
| ATCCCGTTCTTGCCCA (sugars k3 d10 k3, PS) | 30 | – |
| CTAGTTTTCGGCACTC (sugars k3 d10 k3, PS) | 33 | – |
| TTCTAAATTACTCCGT (sugars k3 d10 k3, PS) | 53 | – |
| GAGGTTTTGATACCAG (sugars k3 d10 k3, PS) | 59 | – |
| AAATTTCAGTACCCAG (sugars k3 d10 k3, PS) | 46 | – |
| TATCTTAAGAGAAGGT (sugars k3 d10 k3, PS) | 29 | – |
| TTTCGGCACTCAGCTG (sugars k3 d10 k3, PS) | 29 | – |
| AGTAAACGACTCTGTA (sugars k3 d10 k3, PS) | 33 | – |
| TATAGTAATCACAAGT (sugars k3 d10 k3, PS) | 53 | – |
| TTATGTGATTGAGTTC (sugars k3 d9 k3 e1, PS) | 30 | – |
| ATTAAGCTTAGTATAT (sugars k3 d10 k3, PS) | 10 | – |
| AGTTAGGGAGCCAGCG (sugars k3 d10 k3, PS) | 38 | – |
| CAAGAGGATAGTCCAT (sugars k3 d10 k3, PS) | 58 | – |
| TGCATTAATGCCACCC (sugars k3 d10 k3, PS) | 22 | – |
| CTCCTTATGTTATCTC (sugars k3 d10 k3, PS) | 57 | – |
| GTATUCCATCTATCAG (sugars k3 d1 m1 d8 k3, PS) | 41 | – |
| AGTATTTGGGTGTTCT (sugars k3 d10 k3, PS) | 17 | – |
| ATGTAGTGGGAGTCGG (sugars k3 d10 k3, PS) | 72 | – |
| CCATCCCCTAAGTTAT (sugars k3 d10 k3, PS) | 14 | – |
| TGGTTCAGTCCTTGTG (sugars k3 d10 k3, PS) | 50 | – |

| Sequence | target mRNA inhibition (1 µM) [%] | other results |
| --- | --- | --- |
| TGTTAAGCAGATGGCT (sugars k3 d10 k3, PS) | 39 | – |
| GCAGTAAAGTGCTAAG (sugars k3 d10 k3, PS) | 83 | target mRNA inhibition (0.02 µM): 44%; target mRNA inhibition (0.078 µM): 37%; target mRNA inhibition (0.313 µM): 62%; target mRNA inhibition (1.25 µM): 78%; target mRNA inhibition (5 µM): 91% |
| CTAGGAGATATAACAT (sugars k3 d10 k3, PS) | 40 | – |
| ATGGTGATCAGAAGCA (sugars k3 d10 k3, PS) | 85 | target mRNA inhibition (0.02 µM): 0%; target mRNA inhibition (0.078 µM): 28%; target mRNA inhibition (0.313 µM): 46%; target mRNA inhibition (1.25 µM): 80%; target mRNA inhibition (5 µM): 81% |
| TGTGGCATGGCTACAG (sugars k3 d1 m1 d8 k3, PS) | 5 | – |
| ATTATTCACCACGATT (sugars k3 d10 k3, PS) | 29 | – |
| GTAACGGTGATCAAAT (sugars k3 d10 k3, PS) | 34 | – |
| CCAGTACAGTTCCTTT (sugars k3 d9 k3 e1, PS) | 76 | target mRNA inhibition (0.02 µM): 10%; target mRNA inhibition (0.078 µM): 20%; target mRNA inhibition (0.313 µM): 43%; target mRNA inhibition (1.25 µM): 73%; target mRNA inhibition (5 µM): 83% |
| CAAGTTTGTTCATAGT (sugars k3 d10 k3, PS) | 78 | – |
| ACTAGGAAGTGATCCA (sugars k3 d10 k3, PS) | 58 | – |
| CCACATAGCTAACTCA (sugars k3 d10 k3, PS) | 53 | – |
| TAAGCAGAATTGTGAA (sugars kkdddddddddkekek, PS) | 29 | – |
| TGCCAACACTAATCTC (sugars k3 d10 k3, PS) | 30 | – |
| CCCTGTGTAAATAAGT (sugars k3 d10 k3, PS) | 41 | – |
| CTGTGAGAGGATAGTG (sugars k3 d10 k3, PS) | 33 | – |
| TACCACATACGCATGC (sugars k3 d10 k3, PS) | 33 | – |
| GCCACTGGATGGATTT (sugars k3 d10 k3, PS) | 36 | – |
| TAATTACAACCTGGTT (sugars k3 d10 k3, PS) | 52 | – |
| GGATAAGAAGAGAGCT (sugars k3 d10 k3, PS) | 46 | – |
